The NIST ThermoML archive (doi:10.1016/j.tca.2005.08.034)
Numbers after ± are expanded uncertainties.

Assays:
[1] = xn = mol fraction of the nth substance listed; settings: 298.15 K; for surface tension liquid-gas: Drop volume; for mass density / speed of sound: 101.3 kPa, Liquid; for mass density: Vibrating tube method
[2] = excess molar enthalpy (molar enthalpy of mixing); xn = mol fraction of the nth substance listed; settings: 298.15 K, 101.3 kPa, Liquid, Flow calorimetry
[3] = refractive index (Na D-line) (dimensionless); φn = volume fraction of the nth substance listed; settings: 298.15 K, 101.3 kPa, Liquid, refractometer
[4] = 298.15 K; for surface tension liquid-gas: Drop volume; for speed of sound / mass density: 101.33 kPa, Liquid; for mass density: Vibrating tube method
[5] = refractive index (Na D-line) (dimensionless); settings: 298.15 K; 101.33 kPa; Liquid; refractometer

CC1CCCO1 (configuration not stated) [2-methyltetrahydrofuran] + c1ccccc1
Settings | excess molar enthalpy [kcal/mol] | mass density [kg/m3] | refractive index | speed of sound [m/s] | surface tension liquid-gas [mN/m]
[1], x1 = 0.0456 | – | 872.27 ± 0.13 | – | 1295.7 ± 2.1 | –
[1], x1 = 0.0536 | – | – | – | – | 28.33 ± 0.32
[1], x1 = 0.0971 | – | – | – | – | 28.15 ± 0.32
[1], x1 = 0.0981 | – | 871 ± 0.14 | – | 1290.9 ± 2.1 | –
[1], x1 = 0.1962 | – | – | – | – | 27.74 ± 0.31
[1], x1 = 0.1987 | – | 868.57 ± 0.17 | – | 1281.6 ± 2.1 | –
[1], x1 = 0.2996 | – | 866.21 ± 0.2 | – | 1271.8 ± 2.1 | –
[1], x1 = 0.3039 | – | – | – | – | 27.3 ± 0.31
[1], x1 = 0.395 | – | 863.99 ± 0.23 | – | 1263 ± 2.1 | –
[1], x1 = 0.396 | – | – | – | – | 26.92 ± 0.31
[1], x1 = 0.4976 | – | – | – | – | 26.51 ± 0.31
[1], x1 = 0.4979 | – | 861.47 ± 0.27 | – | 1253.1 ± 2.1 | –
[1], x1 = 0.5949 | – | 859.05 ± 0.3 | – | 1243.6 ± 2.2 | –
[1], x1 = 0.5976 | – | – | – | – | 26.12 ± 0.31
[1], x1 = 0.6798 | – | 856.87 ± 0.33 | – | 1235.1 ± 2.2 | –
[1], x1 = 0.704 | – | – | – | – | 25.71 ± 0.31
[1], x1 = 0.7992 | – | 853.68 ± 0.37 | – | 1222.7 ± 2.2 | –
[1], x1 = 0.8033 | – | – | – | – | 25.36 ± 0.31
[1], x1 = 0.896 | – | 851.23 ± 0.41 | – | 1212.7 ± 2.3 | –
[1], x1 = 0.9034 | – | – | – | – | 25.01 ± 0.31
[1], x1 = 0.9486 | – | 850.1 ± 0.43 | – | 1207.5 ± 2.3 | –
[1], x1 = 0.9535 | – | – | – | – | 24.84 ± 0.31
[2], x1 = 0.054 | -0.00526 ± 0.000478 | – | – | – | –
[2], x1 = 0.097 | -0.011 ± 0.000478 | – | – | – | –
[2], x1 = 0.188 | -0.0232 ± 0.000717 | – | – | – | –
[2], x1 = 0.279 | -0.033 ± 0.000717 | – | – | – | –
[2], x1 = 0.377 | -0.0409 ± 0.000956 | – | – | – | –
[2], x1 = 0.494 | -0.0449 ± 0.000956 | – | – | – | –
[2], x1 = 0.575 | -0.0464 ± 0.000956 | – | – | – | –
[2], x1 = 0.679 | -0.0423 ± 0.000956 | – | – | – | –
[2], x1 = 0.783 | -0.0332 ± 0.000717 | – | – | – | –
[2], x1 = 0.89 | -0.0196 ± 0.000478 | – | – | – | –
[2], x1 = 0.944 | -0.0108 ± 0.000478 | – | – | – | –
[3], φ1 = 0.0603 | – | – | 1.49204 ± 9.3e-05 | – | –
[3], φ1 = 0.1086 | – | – | 1.48747 ± 9.7e-05 | – | –
[3], φ1 = 0.2167 | – | – | 1.47724 ± 0.00011 | – | –
[3], φ1 = 0.331 | – | – | 1.46642 ± 0.00012 | – | –
[3], φ1 = 0.4263 | – | – | 1.4574 ± 0.00014 | – | –
[3], φ1 = 0.5289 | – | – | 1.44769 ± 0.00015 | – | –
[3], φ1 = 0.6273 | – | – | 1.43835 ± 0.00016 | – | –
[3], φ1 = 0.7294 | – | – | 1.42866 ± 0.00018 | – | –
[3], φ1 = 0.8223 | – | – | 1.41981 ± 0.00019 | – | –
[3], φ1 = 0.9137 | – | – | 1.41109 ± 0.0002 | – | –
[3], φ1 = 0.9587 | – | – | 1.40681 ± 0.00021 | – | –

c1ccccc1 [benzene]
Settings | mass density [kg/m3] | refractive index | speed of sound [m/s] | surface tension liquid-gas [mN/m]
[4] | 873.39 ± 0.12 | – | 1299.2 ± 2.1 | 28.57 ± 0.32
[5] | – | 1.49774 ± 9e-05 | – | –

CC1CCCO1 (configuration not stated) [2-methyltetrahydrofuran]
Settings | mass density [kg/m3] | refractive index | speed of sound [m/s] | surface tension liquid-gas [mN/m]
[4] | 849.2 ± 0.45 | – | 1202.8 ± 2.3 | 24.68 ± 0.31
[5] | – | 1.40287 ± 0.00022 | – | –

Fc1ccccc1 [fluorobenzene]
Settings | mass density [kg/m3] | refractive index | speed of sound [m/s] | surface tension liquid-gas [mN/m]
[4] | 1018.79 ± 0.52 | – | 1166 ± 2.3 | 27.43 ± 0.34
[5] | – | 1.4629 ± 0.00022 | – | –
